Data: ChEMBL document CHEMBL4665893, “Scalable Synthesis, In Vitro cccDNA Reduction, and In Vivo Antihepatitis B Virus Activity of a Phosphonomethoxydeoxythreosyl Adenine Prodrug” (J Med Chem, 2020)
The source made the active and inactive calls. No cut-off for these calls is given here.

How the values were obtained:
Hepatitis B virus [1] = experiment: Antiviral activity against adenovirus AdH294-WT harboring wild-type HBV genotype D accession #V01460 infected in human HepG2 cells assessed as reduction in viral replicative intermediate DNAs at 4 to 1000 nM incubated for 5 days by Southern blot analysis; type: functional, organism-based; conditions: time 5.0 day
Hepatitis B virus [2] = experiment: Antiviral activity against ETV-resistant and adenovirus AdH294-7LR harboring wild-type HBV infected in human HepG2 cells assessed as reduction in viral replicative intermediate DNAs up to 100 uM incubated for 5 days by Southern blot analysis; type: functional, organism-based; conditions: dose microM <=100, time 5.0 day
Hepatitis B virus [3] = experiment: Antiviral activity against ETV-resistant and adenovirus AdH294-7LR harboring wild-type HBV infected in human HepG2 cells assessed as viral replicative intermediate DNA level at 4 nM incubated for 5 days by Southern blot analysis (reference value: 100%); type: functional; conditions: time 5 day
Hepatitis B virus [4] = experiment: Antiviral activity against ETV-resistant and adenovirus AdH294-7LR harboring wild-type HBV infected in human HepG2 cells assessed as viral replicative intermediate DNA level at 13 nM incubated for 5 days by Southern blot analysis (reference value: 100%); type: functional; conditions: time 5 day
Hepatitis B virus [5] = experiment: Antiviral activity against ETV-resistant and adenovirus AdH294-7LR harboring wild-type HBV infected in human HepG2 cells assessed as viral replicative intermediate DNA level at 40 nM incubated for 5 days by Southern blot analysis (reference value: 100%); type: functional; conditions: time 5 day
Hepatitis B virus [6] = experiment: Antiviral activity against ETV-resistant and adenovirus AdH294-7LR harboring wild-type HBV infected in human HepG2 cells assessed as viral replicative intermediate DNA level at 120 nM incubated for 5 days by Southern blot analysis (reference value: 100%); type: functional; conditions: time 5 day
Hepatitis B virus [7] = experiment: Antiviral activity against ETV-resistant and adenovirus AdH294-7LR harboring wild-type HBV infected in human HepG2 cells assessed as viral replicative intermediate DNA level at 370 nM incubated for 5 days by Southern blot analysis (reference value: 100%); type: functional; conditions: time 5 day
Hepatitis B virus [8] = experiment: Antiviral activity against ETV-resistant and adenovirus AdH294-7LR harboring wild-type HBV infected in human HepG2 cells assessed as viral replicative intermediate DNA level at 1100 nM incubated for 5 days by Southern blot analysis (reference value: 100%); type: functional; conditions: time 5 day
Hepatitis B virus [9] = experiment: Antiviral activity against ETV-resistant and adenovirus AdH294-7LR harboring wild-type HBV infected in human HepG2 cells assessed as viral replicative intermediate DNA level at 3300 nM incubated for 5 days by Southern blot analysis (reference value: 100%); type: functional; conditions: time 5 day
Hepatitis B virus [10] = experiment: Antiviral activity against ETV-resistant and adenovirus AdH294-7LR harboring wild-type HBV infected in human HepG2 cells assessed as viral replicative intermediate DNA level at 10000 nM incubated for 5 days by Southern blot analysis (reference value: 100%); type: functional; conditions: time 5 day
Hepatitis B virus [11] = experiment: Antiviral activity against adenovirus AdH294-WT harboring wild-type HBV genotype D accession #V01460 infected in human HepG2 cells assessed as reduction in viral replicative intermediate DNA level at 4 nM incubated for 5 days by Southern blot analysis (reference value: 100%); type: functional; design: scale not given: the % may be the effect or the level left; conditions: time 5 day
Hepatitis B virus [12] = experiment: Antiviral activity against adenovirus AdH294-WT harboring wild-type HBV genotype D accession #V01460 infected in human HepG2 cells assessed as reduction in viral replicative intermediate DNA level at 13 nM incubated for 5 days by Southern blot analysis (reference value: 100%); type: functional; design: scale not given: the % may be the effect or the level left; conditions: time 5 day
Hepatitis B virus [13] = experiment: Antiviral activity against adenovirus AdH294-WT harboring wild-type HBV genotype D accession #V01460 infected in human HepG2 cells assessed as reduction in viral replicative intermediate DNA level at 40 nM incubated for 5 days by Southern blot analysis (reference value: 100%); type: functional; design: scale not given: the % may be the effect or the level left; conditions: time 5 day
Hepatitis B virus [14] = experiment: Antiviral activity against adenovirus AdH294-WT harboring wild-type HBV genotype D accession #V01460 infected in human HepG2 cells assessed as reduction in viral replicative intermediate DNA level at 120 nM incubated for 5 days by Southern blot analysis (reference value: 100%); type: functional; design: scale not given: the % may be the effect or the level left; conditions: time 5 day
Hepatitis B virus [15] = experiment: Antiviral activity against adenovirus AdH294-WT harboring wild-type HBV genotype D accession #V01460 infected in human HepG2 cells assessed as reduction in viral replicative intermediate DNA level at 370 nM incubated for 5 days by Southern blot analysis (reference value: 100%); type: functional; design: scale not given: the % may be the effect or the level left; conditions: time 5 day
Hepatitis B virus [16] = experiment: Antiviral activity against adenovirus AdH294-WT harboring wild-type HBV genotype D accession #V01460 infected in human HepG2 cells assessed as reduction in viral replicative intermediate DNA level at 1100 nM incubated for 5 days by Southern blot analysis (reference value: 100%); type: functional; design: scale not given: the % may be the effect or the level left; conditions: time 5 day
Hepatitis B virus [17] = experiment: Antiviral activity against adenovirus AdH294-WT harboring wild-type HBV genotype D accession #V01460 infected in human HepG2 cells assessed as reduction in viral replicative intermediate DNA level at 3300 nM incubated for 5 days by Southern blot analysis (reference value: 100%); type: functional; design: scale not given: the % may be the effect or the level left; conditions: time 5 day
Hepatitis B virus [18] = experiment: Antiviral activity against adenovirus AdH294-WT harboring wild-type HBV genotype D accession #V01460 infected in human HepG2 cells assessed as reduction in viral replicative intermediate DNA level at 10000 nM incubated for 5 days by Southern blot analysis (reference value: 100%); type: functional; design: scale not given: the % may be the effect or the level left; conditions: time 5 day
Hepatitis B virus [19] = experiment: Antiviral activity against HBV infected hydrodynamic injection C57BL/6 mouse model assessed as reduction in serum HBV DNA level at 0.6 to 60 mg/kg, po QD for 6 days by qPCR analysis; type: functional, organism-based; conditions: dose mg/kg 0.6-60, time 6.0 day
[20] = Toxicity in HBV infected hydrodynamic injection C57BL/6 mouse model assessed as effect on body weight at 0.6 to 60 mg/kg, po QD for 6 days; type: organism-based; conditions: in vivo, 144 h, dose 0.6-60 mg/kg, time 6 day

C=C1[C@H](CO)[C@@H](O)C[C@@H]1n1cnc2c(=O)[nH]c(N)nc21.O [ENTECAVIR]
Activity (Hepatitis B virus [1]): Active
Activity (Hepatitis B virus [2]): inactive
Activity (Hepatitis B virus [3]): 93.9%
Activity (Hepatitis B virus [4]): 92.2%
Activity (Hepatitis B virus [5]): 98.6%
Activity (Hepatitis B virus [6]): 63.8%
Activity (Hepatitis B virus [7]): 60.4%
Activity (Hepatitis B virus [8]): 51.2%
Activity (Hepatitis B virus [9]): 35.5%
Activity (Hepatitis B virus [10]): 37%
Activity (Hepatitis B virus [11]): 46.4%
Activity (Hepatitis B virus [12]): 25.7%
Activity (Hepatitis B virus [13]): 16%
Activity (Hepatitis B virus [14]): 13.8%
Activity (Hepatitis B virus [15]): 10.5%
Activity (Hepatitis B virus [16]): 7%
Activity (Hepatitis B virus [17]): 4.6%
Activity (Hepatitis B virus [18]): 2.9%
Activity (Hepatitis B virus [19]): Dose-dependent effect
Activity [20]: Non-Toxic
